Source: patent US8552021B2, “Phosphoramidate derivatives of nucleosides” (Janssen Products, L.P., priority 2009, dated 2013)
Where two headings read alike, the source gives them in different places.

Tests used:
Assay type in all cases: cell-based
Huh-7 = experiment: Cytotoxicity CC50 in Huh-7; conditions: Huh-7 cells
Description: (§1) The in vitro antiviral activity against HCV of the compounds of formula I can be tested in a cellular HCV replicon system based on Lohmann et al. (1999) Science 285:110-113, with the further modifications described by Krieger et al. (2001) Journal of Virology 75: 4614-4624 (incorporated herein by reference), which is further exemplified in the examples section. This model, while not a complete infection model for HCV, is widely accepted as the most robust and efficient model of autonomous HCV RNA replication currently available. […] It will be appreciated that it is important to distinguish between compounds that specifically interfere with HCV functions from those that exert cytotoxic or cytostatic effects in the HCV replicon model, and as a consequence cause a decrease in HCV RNA or linked reporter enzyme concentration. Assays are known in the field for the evaluation of cellular cytotoxicity based for example on the activity of mitochondrial enzymes using fluorogenic redox dyes such as resazurin. Furthermore, cellular counter screens exist for the evaluation of non-selective inhibition of linked reporter gene activity, such as firefly luciferase. Appropriate cell types can be equipped by stable transfection with a luciferase reporter gene whose expression is dependent on a constitutively active gene promoter, and such cells can be used as a counter-screen to eliminate non-selective inhibitors.

[1] = test system: HCV type 1b replicon in Huh-7 luc/neo (Huh-Luc) cells; experiment: HCV replicon assay (Huh-Luc luciferase); conditions: three days incubation, luciferase activity, average where tested more than once, read-out: EC50 1b ET
Description: The compounds of formula I are examined for activity in the inhibition of HCV RNA replication in a cellular assay. […] The cellular assay can be based on a bicistronic expression construct, as described by Lohmann et al. (1999) Science vol. 285 pp. 110-113 with modifications described by Krieger et al. (2001) Journal of Virology 75: 4614-4624, in a multi-target screening strategy. The Bartenschlager replicon assays are available commercially from ReBLikon GmbH in Mainz, Germany.
In essence, the method is as follows.
The assay utilized the stably transfected cell line Huh-7 luc/neo (hereafter referred to as Huh-Luc). This cell line harbors an RNA encoding a bicistronic expression construct comprising the wild type NS3—NS5B regions of HCV type 1b translated from an Internal Ribosome Entry Site (IRES) from encephalomyocarditis virus (EMCV), preceded by a reporter portion (FfL-luciferase), and a selectable marker portion (neo^R, neomycine phosphotransferase). The construct is bordered by 5′ and 3′ NTRs (non-translated regions) from HCV type lb. Continued culture of the replicon cells in the presence of G418 (neo^R) is dependent on the replication of the HCV RNA. The stably transfected replicon cells that express HCV RNA, which replicates autonomously and to high levels, encoding inter alia luciferase, are used for screening the antiviral compounds.
The replicon cells were plated in well plates in the presence of the test and control compounds, which were added in various concentrations. Following an incubation of three days, HCV replication was measured by assaying luciferase activity (using standard luciferase assay substrates and reagents and a Perkin Elmer ViewLux™ ultraHTS microplate imager). Replicon cells in the control cultures have high luciferase expression in the absence of any inhibitor. The inhibitory activity of the compound on luciferase activity was monitored on the Huh-Luc cells, enabling a dose-response curve for each test compound. EC50 values were then calculated, which value represents the amount of the compound required to decrease by 50% the level of detected luciferase activity, or more specifically, the ability of the genetically linked HCV replicon RNA to replicate. Where a compound of formula (I) was tested more than once in the replicon assay, the average of all test results is given in Table 1.

[2] = Cytotoxicity CC50 in Huh-7; conditions: human; Huh-7 cells
Description: as §1

SMILES	CC50 (Huh-7)	EC50 [1]	CC50 [2]	EC50 ([1]; Hepatitis C virus, Huh-7, 72 h)
CCCC(CCC)COC(=O)C(C)NP(=O)(OCC1(N=[N+]=[N-])OC(n2ccc(=O)[nH]c2=O)C(C)C1O)Oc1ccccc1 (mixture of isomers) [Compound I-3]	30.7 µM	8.06 µM	–	–
CC(NP(=O)(OCC1(N=[N+]=[N-])OC(n2ccc(=O)[nH]c2=O)C(C)C1O)Oc1cccc2ccccc12)C(=O)OCc1ccccc1 (mixture of isomers) [Compound I-11]	> 100 µM	13.8 µM	–	–
CCCC(CCC)COC(=O)C(C)NP(=O)(OCC1(N=[N+]=[N-])OC(n2ccc(=O)[nH]c2=O)C(C)C1O)Oc1ccc(Cl)cc1 (mixture of isomers) [Compound I-15]	> 100 µM	15.3 µM	–	–
CCOC(=O)C(C)NP(=O)(OCC1(N=[N+]=[N-])OC(n2ccc(=O)[nH]c2=O)C(C)C1O)Oc1ccccc1 (mixture of isomers) [Compound I-16]	> 98.3 µM	16.4 µM	–	–
COCCOC(=O)C(C)NP(=O)(OCC1(N=[N+]=[N-])OC(n2ccc(=O)[nH]c2=O)C(C)C1O)Oc1ccccc1 (mixture of isomers) [Compound I-23]	> 98.3 µM	32.1 µM	–	–
CCOC(=O)C(C)NP(=O)(OCC1(N=[N+]=[N-])OC(n2ccc(=O)[nH]c2=O)C(C)C1O)Oc1cc(C)c(Cl)cc1C(C)C (mixture of isomers) [Compound I-24]	55 µM	37.7 µM	–	–
CCOC(=O)[C@H](C)NP(=O)(OC[C@@]1(N=[N+]=[N-])O[C@@H](n2ccc(=O)[nH]c2=O)[C@@H](C)[C@@H]1O)Oc1ccccc1 (single isomer, unassigned) [Compound I-8]	> 98.3 µM	12 µM	–	–
CCOC(=O)[C@H](C)NP(=O)(OC[C@@]1(N=[N+]=[N-])O[C@@H](n2ccc(=O)[nH]c2=O)[C@@H](C)[C@@H]1O)Oc1ccccc1 (single isomer, unassigned) [Compound I-17]	> 98.3 µM	17.3 µM	–	–
CC(NP(=O)(OC[C@@]1(N=[N+]=[N-])O[C@@H](n2ccc(=O)[nH]c2=O)[C@@H](C)[C@@H]1O)Oc1ccccc1)C(=O)OCc1ccccc1 (stereo partly shown) [Compound I-1]	–	–	> 100 µM	5.95 µM
CCCCOC(=O)C(C)NP(=O)(OC[C@@]1(N=[N+]=[N-])O[C@@H](n2ccc(=O)[nH]c2=O)[C@@H](C)[C@@H]1O)Oc1ccccc1 (stereo partly shown) [Compound I-4]	–	–	> 98.3 µM	9.33 µM
CCCCCOC(=O)C(C)NP(=O)(OC[C@@]1(N=[N+]=[N-])O[C@@H](n2ccc(=O)[nH]c2=O)[C@@H](C)[C@@H]1O)Oc1ccccc1 (stereo partly shown) [Compound I-5]	–	–	> 98.3 µM	9.48 µM
CC(NP(=O)(OC[C@@]1(N=[N+]=[N-])O[C@@H](n2ccc(=O)[nH]c2=O)[C@@H](C)[C@@H]1O)Oc1ccccc1)C(=O)OC1CCCC1 (stereo partly shown) [Compound I-6]	–	–	> 98.3 µM	10.5 µM
CC(NP(=O)(OC[C@@]1(N=[N+]=[N-])O[C@@H](n2ccc(=O)[nH]c2=O)[C@@H](C)[C@@H]1O)Oc1ccccc1)C(=O)OC1CCCCC1 (stereo partly shown) [Compound I-7]	–	–	> 98.3 µM	11.2 µM
CCCC(CCC)COC(=O)[C@H](C)NP(=O)(O)OC[C@@]1(N=[N+]=[N-])O[C@@H](n2ccc(=O)[nH]c2=O)[C@@H](C)[C@@H]1O [Compound I-9]	–	15.8 µM	–	–
CCCOC(=O)C(C)NP(=O)(OC[C@@]1(N=[N+]=[N-])O[C@@H](n2ccc(=O)[nH]c2=O)[C@@H](C)[C@@H]1O)Oc1ccccc1 (stereo partly shown) [Compound I-10]	–	–	> 98.3 µM	12.9 µM
C[C@@H]1[C@H](n2ccc(=O)[nH]c2=O)O[C@@](COP(=O)(NC(C)(C)C(=O)OCc2ccccc2)Oc2ccccc2)(N=[N+]=[N-])[C@H]1O (stereo partly shown) [Compound I-12]	–	–	> 100 µM	13.9 µM

SMILES	CC50 (Huh-7)	EC50 [1]	CC50 [2]	EC50 ([1]; Hepatitis C virus, Huh-7, 72 h)
CCCCOC(=O)C(C)(C)NP(=O)(OC[C@@]1(N=[N+]=[N-])O[C@@H](n2ccc(=O)[nH]c2=O)[C@@H](C)[C@@H]1O)Oc1ccccc1 (stereo partly shown) [Compound I-13]	–	–	88.5 µM	13.1 µM
CC(C)OC(=O)C(C)NP(=O)(OC[C@@]1(N=[N+]=[N-])O[C@@H](n2ccc(=O)[nH]c2=O)[C@@H](C)[C@@H]1O)Oc1ccccc1 (stereo partly shown) [Compound I-14]	–	–	> 100 µM	14.9 µM
COC(=O)C(C)NP(=O)(OC[C@@]1(N=[N+]=[N-])O[C@@H](n2ccc(=O)[nH]c2=O)[C@@H](C)[C@@H]1O)Oc1ccccc1 (stereo partly shown) [Compound I-18]	–	–	> 98.3 µM	27 µM
CCCCOC(=O)C(CC)NP(=O)(OC[C@@]1(N=[N+]=[N-])O[C@@H](n2ccc(=O)[nH]c2=O)[C@@H](C)[C@@H]1O)Oc1ccccc1 (stereo partly shown) [Compound I-20]	–	–	> 73.9 µM	28 µM
CCC(NP(=O)(OC[C@@]1(N=[N+]=[N-])O[C@@H](n2ccc(=O)[nH]c2=O)[C@@H](C)[C@@H]1O)Oc1ccccc1)C(=O)OCc1ccccc1 (stereo partly shown) [Compound I-21]	–	–	81.8 µM	29.2 µM
C[C@@H]1[C@H](n2cc(I)c(=O)[nH]c2=O)O[C@@](COP(=O)(N[C@@H](C)C(=O)OCc2ccccc2)Oc2ccccc2)(N=[N+]=[N-])[C@H]1O (stereo partly shown) [Compound I-25]	–	–	> 98.3 µM	57.3 µM
CCC(NP(=O)(OC[C@@]1(N=[N+]=[N-])O[C@@H](n2ccc(=O)[nH]c2=O)[C@@H](C)[C@@H]1O)Oc1ccccc1)C(=O)OC (stereo partly shown) [Compound I-26]	–	–	> 98.3 µM	74.7 µM
CCC(NP(=O)(O)OC[C@@]1(N=[N+]=[N-])O[C@@H](n2ccc(=O)[nH]c2=O)[C@@H](C)[C@@H]1O)C(=O)OC(C)C (stereo partly shown) [Compound I-27]	–	–	–	> 98.4 µM
CC(C)OC(=O)C(C)(C)NP(=O)(OC[C@@]1(N=[N+]=[N-])O[C@@H](n2ccc(=O)[nH]c2=O)[C@@H](C)[C@@H]1O)Oc1ccccc1 (stereo partly shown) [Compound I-28]	–	–	> 98.4 µM	> 98.4 µM
CCC(NP(=O)(O)OC[C@@]1(N=[N+]=[N-])O[C@@H](n2ccc(=O)[nH]c2=O)[C@@H](C)[C@@H]1O)C(=O)OC (stereo partly shown) [Compound I-29]	–	–	> 98.4 µM	> 98.4 µM
CCCOC(=O)C(C)NP(=O)(O)OC[C@@]1(N=[N+]=[N-])O[C@@H](n2ccc(=O)[nH]c2=O)[C@@H](C)[C@@H]1O (stereo partly shown) [Compound I-30]	–	–	> 98.4 µM	> 98.4 µM
CC(NP(=O)(OC[C@@]1(N=[N+]=[N-])O[C@@H](n2ccc(=O)[nH]c2=O)[C@@H](C)[C@@H]1O)Oc1ccccc1)C(=O)OC(C)(C)C (stereo partly shown) [Compound I-31]	–	–	> 98.4 µM	> 98.4 µM
CCCCOC(=O)C(C)(C)NP(=O)(O)OC[C@@]1(N=[N+]=[N-])O[C@@H](n2ccc(=O)[nH]c2=O)[C@@H](C)[C@@H]1O [Compound I-32]	–	–	–	> 98.4 µM
CCC(NP(=O)(O)OC[C@@]1(N=[N+]=[N-])O[C@@H](n2ccc(=O)[nH]c2=O)[C@@H](C)[C@@H]1O)C(=O)OCc1ccccc1 (stereo partly shown) [Compound I-33]	–	–	–	> 98.4 µM
CCC(NP(=O)(OC[C@@]1(N=[N+]=[N-])O[C@@H](n2ccc(=O)[nH]c2=O)[C@@H](C)[C@@H]1O)Oc1ccccc1)C(=O)OC(C)C (stereo partly shown) [Compound I-34]	–	–	> 98.4 µM	> 98.4 µM
